“And” between values parts separate entries of the source, which are not always exact repeats. Identical values can stand only once.
Legend:
[1] = system: Escherichia coli K-12 ATCC 25253; assay type: cell-based
Salmonella Newport = assay: Biofilm formation on food contact surface coupons, direct plating; assay type: cell-based, Salmonella enterica; conditions: two-minute treatment
Procedure: A protocol based on direct plating was also evaluated for testing the biofilm formation by Salmonella or L. monocytogenes. Biofilms were formed on three different food contact surface coupons (HDPE, Buna-N rubber, and 316 stainless steel) for up to 3 days in 35 mm mini-petri dishes. Biofilms were formed using a 1:10 diluted TSB solution (10 mL) with either S. enterica or L. monocytogenes inoculum (100 μL). The diluted TSB was changed every 16-18 hours with new 1:10 diluted TSB (10 mL). Coupons were removed for sampling and enumeration of strongly attached bacteria at three different time points (Day 0, 1, and 3). The coupons were rinsed with deionized water five times to remove planktonic cells. Then the coupons were immersed in 10 mL of BPW. The coupons were sonicated for 2 minutes using different settings (Tables 11 and 12) for each organism. After sonication, the solution was serially diluted and plated on Tryptic Soy Agar (TSA). Plates were incubated at 37° C. for 24-48 hours. The colonies were counted and the colony forming units were determined for the various sonication settings, so that the appropriate setting with the most recovery could be determined. […] These settings were used in further experiments to recover the bacterial cells from coupons during sampling and enumeration (by spread plating) of the bacteria in biofilms.
The reduction in bacterial biofilm formation was also tested using a direct plating method. Biofilms were formed on six different food contact surface coupons (HDPE, Buna-N rubber, PC, PVC, and stainless steel 304 and 316) in separate 35 mm mini-petri dishes and evaluated at three different time points (Day 0, 1, and 3). Biofilms were formed using a 1:10 diluted TSB solution (10 mL) with either S. enterica or L. monocytogenes inoculum (100 μL). The coupons were also washed and treated with antimicrobial solutions containing the plant-based emulsifier and the essential oil/plant extracts at various concentrations. The diluted TSB was changed every 16-18 hours with new 1:10 diluted TSB (10 mL). The coupons were rinsed in the antimicrobial solution before adding them to the petri dishes containing the fresh, diluted TSB. After their specific time points, coupons were removed aseptically using sterile forceps from the petri dish. The coupons were rinsed by submerging in 25 mL of sterile deionized H2O and swirled five times to remove planktonic cells. After rinsing, they were placed into a new petri dish immersed in 10 mL of BPW. The coupons were sonicated for 2 minutes on ice using different settings for each organism. After sonication, the sonicated solution was serially diluted using 0.1% peptone water and spread plated on TSA in duplicate. Plates were incubated overnight at 37° C. for 24-48 hours, after which, the colonies were counted, to establish the efficacy of the antimicrobial solutions (Tables 17-25).

OO [3% hydrogen peroxide, hydrogen peroxide]
Bacterial reductions on spinach samples after sanitizer treatments [1]: 0.8-1.2 Log CFU/g and 1.0-1.3 Log CFU/g
log reduction of E. coli K-12 on spinach [1]: 0.8-1.2 log and 1.0-1.3 log

CC(C)=CCCC(C)=CC=O [Citral, citral]
Survivors of Salmonella Newport on food contact surface (Salmonella Newport; 0.5% with 0.0001% saponin microemulsion, Day 0, 304 SS): 4.32 Log CFU/mL
Survivors of Salmonella Newport on food contact surface (Salmonella Newport; 0.5% with 0.0001% saponin microemulsion, Day 0, 316 SS): 4.36 Log CFU/mL
Survivors of Salmonella Newport on food contact surface (Salmonella Newport; 0.5% with 0.0001% saponin microemulsion, Day 0, Buna N): 4.06 Log CFU/mL
Survivors of Salmonella Newport on food contact surface (Salmonella Newport; 0.5% with 0.0001% saponin microemulsion, Day 0, HDPE): 3.44 Log CFU/mL
Survivors of Salmonella Newport on food contact surface (Salmonella Newport; 0.5% with 0.0001% saponin microemulsion, Day 0, PC): 3.25 Log CFU/mL
Survivors of Salmonella Newport on food contact surface (Salmonella Newport; 0.5% with 0.0001% saponin microemulsion, Day 0, PVC): 3.49 Log CFU/mL
Survivors of Salmonella Newport on food contact surface (Salmonella Newport; 0.5% with 0.0001% saponin microemulsion, Day 1, 304 SS): 4.52 Log CFU/mL
Survivors of Salmonella Newport on food contact surface (Salmonella Newport; 0.5% with 0.0001% saponin microemulsion, Day 1, 316 SS): 4.52 Log CFU/mL
Survivors of Salmonella Newport on food contact surface (Salmonella Newport; 0.5% with 0.0001% saponin microemulsion, Day 1, Buna N): 4.34 Log CFU/mL
Survivors of Salmonella Newport on food contact surface (Salmonella Newport; 0.5% with 0.0001% saponin microemulsion, Day 1, HDPE): 4.24 Log CFU/mL
Survivors of Salmonella Newport on food contact surface (Salmonella Newport; 0.5% with 0.0001% saponin microemulsion, Day 1, PC): 4.20 Log CFU/mL
Survivors of Salmonella Newport on food contact surface (Salmonella Newport; 0.5% with 0.0001% saponin microemulsion, Day 1, PVC): 4.27 Log CFU/mL
Survivors of Salmonella Newport on food contact surface (Salmonella Newport; 0.5% with 0.0001% saponin microemulsion, Day 3, 304 SS): 4.20 Log CFU/mL
Survivors of Salmonella Newport on food contact surface (Salmonella Newport; 0.5% with 0.0001% saponin microemulsion, Day 3, 316 SS): 4.36 Log CFU/mL
Survivors of Salmonella Newport on food contact surface (Salmonella Newport; 0.5% with 0.0001% saponin microemulsion, Day 3, Buna N): 4.20 Log CFU/mL
Survivors of Salmonella Newport on food contact surface (Salmonella Newport; 0.5% with 0.0001% saponin microemulsion, Day 3, HDPE): 3.56 Log CFU/mL
Survivors of Salmonella Newport on food contact surface (Salmonella Newport; 0.5% with 0.0001% saponin microemulsion, Day 3, PC): 3.52 Log CFU/mL
Survivors of Salmonella Newport on food contact surface (Salmonella Newport; 0.5% with 0.0001% saponin microemulsion, Day 3, PVC): 4.27 Log CFU/mL
Survivors of Salmonella Newport on food contact surface (Salmonella Newport; 0.7% with 0.0001% saponin microemulsion, Day 0, 304 SS): 4.23 Log CFU/mL
Survivors of Salmonella Newport on food contact surface (Salmonella Newport; 0.7% with 0.0001% saponin microemulsion, Day 0, 316 SS): 3.59 Log CFU/mL
Survivors of Salmonella Newport on food contact surface (Salmonella Newport; 0.7% with 0.0001% saponin microemulsion, Day 0, Buna N): 4.52 Log CFU/mL
Survivors of Salmonella Newport on food contact surface (Salmonella Newport; 0.7% with 0.0001% saponin microemulsion, Day 0, HDPE): 2.71 Log CFU/mL
Survivors of Salmonella Newport on food contact surface (Salmonella Newport; 0.7% with 0.0001% saponin microemulsion, Day 0, PC): 3.59 Log CFU/mL
Survivors of Salmonella Newport on food contact surface (Salmonella Newport; 0.7% with 0.0001% saponin microemulsion, Day 0, PVC): 3.24 Log CFU/mL
Survivors of Salmonella Newport on food contact surface (Salmonella Newport; 0.7% with 0.0001% saponin microemulsion, Day 1, 304 SS): 3.36 Log CFU/mL
Survivors of Salmonella Newport on food contact surface (Salmonella Newport; 0.7% with 0.0001% saponin microemulsion, Day 1, 316 SS): 3.24 Log CFU/mL
Survivors of Salmonella Newport on food contact surface (Salmonella Newport; 0.7% with 0.0001% saponin microemulsion, Day 1, Buna N): 3.52 Log CFU/mL
Survivors of Salmonella Newport on food contact surface (Salmonella Newport; 0.7% with 0.0001% saponin microemulsion, Day 1, HDPE): <1 Log CFU/mL
Survivors of Salmonella Newport on food contact surface (Salmonella Newport; 0.7% with 0.0001% saponin microemulsion, Day 1, PC): <1 Log CFU/mL
Survivors of Salmonella Newport on food contact surface (Salmonella Newport; 0.7% with 0.0001% saponin microemulsion, Day 1, PVC): <1 Log CFU/mL
Survivors of Salmonella Newport on food contact surface (Salmonella Newport; 0.7% with 0.0001% saponin microemulsion, Day 3, 304 SS): <1 Log CFU/mL
Survivors of Salmonella Newport on food contact surface (Salmonella Newport; 0.7% with 0.0001% saponin microemulsion, Day 3, 316 SS): <1 Log CFU/mL
Survivors of Salmonella Newport on food contact surface (Salmonella Newport; 0.7% with 0.0001% saponin microemulsion, Day 3, Buna N): <1 Log CFU/mL
Survivors of Salmonella Newport on food contact surface (Salmonella Newport; 0.7% with 0.0001% saponin microemulsion, Day 3, HDPE): <1 Log CFU/mL
Survivors of Salmonella Newport on food contact surface (Salmonella Newport; 0.7% with 0.0001% saponin microemulsion, Day 3, PC): <1 Log CFU/mL
Survivors of Salmonella Newport on food contact surface (Salmonella Newport; 0.7% with 0.0001% saponin microemulsion, Day 3, PVC): <1 Log CFU/mL
Survivors of Salmonella Newport on food contact surface (Salmonella Newport; 1% with 0.0001% saponin microemulsion, Day 0, 304 SS): 3.91 Log CFU/mL
Survivors of Salmonella Newport on food contact surface (Salmonella Newport; 1% with 0.0001% saponin microemulsion, Day 0, 316 SS): 4.13 Log CFU/mL
Survivors of Salmonella Newport on food contact surface (Salmonella Newport; 1% with 0.0001% saponin microemulsion, Day 0, Buna N): 3.26 Log CFU/mL
Survivors of Salmonella Newport on food contact surface (Salmonella Newport; 1% with 0.0001% saponin microemulsion, Day 0, HDPE): 4.45 Log CFU/mL
Survivors of Salmonella Newport on food contact surface (Salmonella Newport; 1% with 0.0001% saponin microemulsion, Day 0, PC): 4.20 Log CFU/mL
Survivors of Salmonella Newport on food contact surface (Salmonella Newport; 1% with 0.0001% saponin microemulsion, Day 0, PVC): 3.89 Log CFU/mL
Survivors of Salmonella Newport on food contact surface (Salmonella Newport; 1% with 0.0001% saponin microemulsion, Day 1, 304 SS): <1 Log CFU/mL
Survivors of Salmonella Newport on food contact surface (Salmonella Newport; 1% with 0.0001% saponin microemulsion, Day 1, 316 SS): <1 Log CFU/mL
Survivors of Salmonella Newport on food contact surface (Salmonella Newport; 1% with 0.0001% saponin microemulsion, Day 1, Buna N): <1 Log CFU/mL
Survivors of Salmonella Newport on food contact surface (Salmonella Newport; 1% with 0.0001% saponin microemulsion, Day 1, HDPE): <1 Log CFU/mL
Survivors of Salmonella Newport on food contact surface (Salmonella Newport; 1% with 0.0001% saponin microemulsion, Day 1, PC): <1 Log CFU/mL
Survivors of Salmonella Newport on food contact surface (Salmonella Newport; 1% with 0.0001% saponin microemulsion, Day 1, PVC): <1 Log CFU/mL
Survivors of Salmonella Newport on food contact surface (Salmonella Newport; 1% with 0.0001% saponin microemulsion, Day 3, 304 SS): <1 Log CFU/mL
Survivors of Salmonella Newport on food contact surface (Salmonella Newport; 1% with 0.0001% saponin microemulsion, Day 3, 316 SS): <1 Log CFU/mL
Survivors of Salmonella Newport on food contact surface (Salmonella Newport; 1% with 0.0001% saponin microemulsion, Day 3, Buna N): <1 Log CFU/mL
Survivors of Salmonella Newport on food contact surface (Salmonella Newport; 1% with 0.0001% saponin microemulsion, Day 3, HDPE): <1 Log CFU/mL
Survivors of Salmonella Newport on food contact surface (Salmonella Newport; 1% with 0.0001% saponin microemulsion, Day 3, PC): <1 Log CFU/mL
Survivors of Salmonella Newport on food contact surface (Salmonella Newport; 1% with 0.0001% saponin microemulsion, Day 3, PVC): <1 Log CFU/mL

Reference: US12239134B2, “Plant antimicrobial compositions including an emulsifier and/or ozone and methods of use” (Arizona Board of Regents on Behalf of The University of …, priority 2018, dated 2025)
